Consider 6 compounds from patent US20090131380A1, “Novel pharmaceutical composition for topical treatment of skin psoriasis and the treatment method thereof” (priority 2007, published 2009).

The test system of data set [1] is skin psoriasis. The conditions noted are these: cited from earlier work; for clinical antipsoriatic efficacy: topical, 0.05% (w/w) in Locobase® unctuous creme, 50 μg/cm^2/24 h, 35 days; for effect on psoriatic rash (irritation / worsening): topically administered.
Data set [2] relates to psoriatic plaques (skin psoriasis). The data set is described as follows: Topical treatment trial of psoriatic plaques in one psoriasis patient (Tetrac, Control and Daivonex regimens). It counts as in vivo, human. The conditions noted are these: twice a day. On the procedure:
A psoriasis patient having almost symmetrical psoriatic plaques on the lateral sides of both elbows (l.dx: 41 cm^2 and l.sin: 44 cm^2) and a psoriatic plaque (53 cm^2) on right calf was chosen for the trial.
a) An ointment (Locobase® unctuous creme, Astellas Pharma A/S Glostrup, Denmark) in which 500 μg/g 3,3′,5,5′-tetraiodothyroacetic acid (0.05%) of GMP-quality (Pharmatory Ltd., Oulu, Finland) was mixed was used as an ex tempore preparation for the concerned treatment purpose (hereinafter referred to as “Tetrac”).
b) A 50 μg/g calcipotriol (0.005%) containing creme (Daivonex®, LEO Pharma A/S, Ballerup, Denmark) was available as commercial pharmaceutical product (hereinafter referred to as “Daivonex®”).
c) A betamethasone 17-valerate-containing creme (Bemetson®, Orion oyj, Espoo, Finland) responding betamethasone 1 mg/g (0.1%) was available as a commercial product (hereinafter referred to as “Bemetson®”).
a) The psoriatic lesion of the left elbow of the patient was selected as the target of the topical treatment with Tetrac, the result of which is shown in left column of FIG. 1—“The Tetrac Regimen”. […]

In data set [3] the test system is plaque psoriasis. The conditions noted are these: placebo-controlled double-blind study, carried out in 1997; cited from earlier work.
In data set [4] the test system is psoriasis. Conditions: topical Triac; WO96/40048; cited from earlier work.

On to `N[C@H](Cc1cc(I)c(Oc2cc(I)c(O)c(I)c2)c(I)c1)C(=O)O` [D-thyroxine], for which, in data set [1], the clinical antipsoriatic efficacy entry was “ineffective” and the “effect on psoriatic rash (irritation / worsening)” value (“effect … (irritation / worsening)” for short) was “do not irritate or worsen psoriatic rash”.

Regarding `N[C@@H](Cc1cc(I)c(Oc2cc(I)c(O)c(I)c2)c(I)c1)C(=O)O` [L-thyroxine], the “effect … (irritation / worsening)” value in data set [1] was “greatly worsen psoriatic rash”.

On to `N[C@@H](Cc1cc(I)c(Oc2ccc(O)c(I)c2)c(I)c1)C(=O)O` [L-triiodothyronine], for which the “effect … (irritation / worsening)” value in data set [1] is reported as “greatly worsen psoriatic rash”.

Regarding `O=C(O)Cc1cc(I)c(Oc2cc(I)c(O)c(I)c2)c(I)c1` [Tetrac, 3,3′,5,5′-tetraiodothyroacetic acid], in data set [2] (after five weeks, photographs FIG. 1 / FIG. 2), the “clinical antipsoriatic effect on psoriatic lesion” value is on record as “clear clinical antipsoriatic effect”. The “clinical antipsoriatic effect / healing of psoriatic plaque at end of trial” value in data set [2] (six weeks, Bemetson® (betamethasone) concurrently added for the final sixth week) is “surprisingly more potent clinical antipsoriatic effect”. In data set [1], the clinical antipsoriatic efficacy entry was “strong clinical antipsoriatic efficacy”.

As to `O=C(O)CCc1cc(I)c(Oc2cc(I)c(O)c(I)c2)c(I)c1` [Tetraprop, 3,3′,5,5′-tetraiodothyropropionic acid], the clinical antipsoriatic efficacy result in data set [1] was “strong clinical antipsoriatic efficacy”.

With `O=C(O)Cc1cc(I)c(Oc2ccc(O)c(I)c2)c(I)c1` [Triac, 3,3′5-triiodothyroacetic acid], in data set [3], the “efficacy in the topical treatment of plaque psoriasis” value is on record as “ineffective”. For the same compound, in data set [4], the “experiment persons in whom an antipsoriatic effect had emerged” value is 60%. Also, in data set [1], the clinical antipsoriatic efficacy result is recorded as “indeed ineffective” and the “effect … (irritation / worsening)” value is given as “do not irritate or worsen psoriatic rash”.
